Experimental data: the supplement of paper PMC10307832

What was measured:
Assay in all cases: relative viability (nuclei count vs DMSO), 5 days (fraction); higher = more cells survive
Vandetanib + Dasatinib = compound: COc1cc2/c(=N/c3ccc(Br)cc3F)nc[nH]c2cc1OCC1CCN(C)CC1 [Vandetanib] + Cc1nc(Nc2ncc(C(=O)Nc3c(C)cccc3Cl)s2)cc(N2CCN(CCO)CC2)n1 [Dasatinib] (partner 0.075 µM)
Method in brief: (§1)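 Five library-drug doses in √10 steps were combined with a fixed anchor-drug dose, or a single drug was given alone, by pin tool to lung cancer cell lines in 1536-well plates the day after seeding. Nuclei were stained and counted after 5 days. Relative viability is the nuclei count in treated wells over that in vehicle wells, taken as the median of duplicate plates.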

CUDC-101 + Trametinib = compound: C#Cc1cccc(Nc2ncnc3cc(OC)c(OCCCCCCC(=O)NO)cc23)c1 [CUDC-101] + CC(=O)Nc1cccc(-n2c(=O)n(C3CC3)c(=O)c3c(Nc4ccc(I)cc4F)n(C)c(=O)c(C)c32)c1 [Trametinib] (partner 0.02 µM)
Method in brief: as §1

CUDC-101 + Navitoclax = compound: C#Cc1cccc(Nc2ncnc3cc(OC)c(OCCCCCCC(=O)NO)cc23)c1 [CUDC-101] + CC1(C)CCC(c2ccc(Cl)cc2)=C(CN2CCN(c3ccc(C(=O)NS(=O)(=O)c4ccc(N[C@H](CCN5CCOCC5)CSc5ccccc5)c(S(=O)(=O)C(F)(F)F)c4)cc3)CC2)C1 [Navitoclax] (partner 0.5 µM)
Method in brief: as §1

Vandetanib + Olaparib = compound: COc1cc2/c(=N/c3ccc(Br)cc3F)nc[nH]c2cc1OCC1CCN(C)CC1 [Vandetanib] + O=C(c1cc(Cc2n[nH]c(=O)c3ccccc23)ccc1F)N1CCN(C(=O)C2CC2)CC1 [Olaparib] (partner 8 µM)
Method in brief: as §1

Cell Line | relative viability (Vandetanib + Dasatinib; first compound 0.02 µM) | relative viability (Vandetanib + Dasatinib; first compound 0.06325 µM) | relative viability (Vandetanib + Dasatinib; first compound 0.2 µM) | relative viability (Vandetanib + Dasatinib; first compound 0.6325 µM) | relative viability (Vandetanib + Dasatinib; first compound 2 µM) | relative viability (CUDC-101 + Trametinib; first compound 0.01 µM) | relative viability (CUDC-101 + Trametinib; first compound 0.03162 µM) | relative viability (CUDC-101 + Trametinib; first compound 0.1 µM) | relative viability (CUDC-101 + Trametinib; first compound 0.3162 µM) | relative viability (CUDC-101 + Trametinib; first compound 1 µM) | relative viability (CUDC-101 + Navitoclax; first compound 0.01 µM) | relative viability (CUDC-101 + Navitoclax; first compound 0.03162 µM) | relative viability (CUDC-101 + Navitoclax; first compound 0.1 µM) | relative viability (CUDC-101 + Navitoclax; first compound 0.3162 µM) | relative viability (CUDC-101 + Navitoclax; first compound 1 µM) | relative viability (Vandetanib + Olaparib; first compound 0.02 µM) | relative viability (Vandetanib + Olaparib; first compound 0.06325 µM) | relative viability (Vandetanib + Olaparib; first compound 0.2 µM) | relative viability (Vandetanib + Olaparib; first compound 0.6325 µM) | relative viability (Vandetanib + Olaparib; first compound 2 µM)
LU99A | 0.427 | 0.521 | 0.387 | 0.416 | 0.636 | 0.444 | 0.539 | 0.617 | 0.535 | 0.374 | 0.857 | 1.07 | 0.728 | 0.642 | 0.159 | 0.251 | 0.301 | 0.173 | 0.209 | 0.272
LXF-289 | 0.24 | 0.218 | 0.107 | 0.257 | 0.253 | 0.689 | 0.671 | 0.659 | 0.605 | 0.539 | 0.952 | 0.966 | 0.911 | 0.932 | 0.753 | 1.01 | 1.05 | 0.682 | 1 | 1
NCI-H23 | 0.882 | 0.806 | 0.821 | 0.797 | 0.728 | 0.338 | 0.357 | 0.413 | 0.373 | 0.351 | 0.801 | 0.796 | 0.817 | 0.849 | 0.791 | 0.346 | 0.275 | 0.328 | 0.343 | 0.335
NCI-H322M | 0.23 | 0.25 | 0.24 | 0.223 | 0.252 | 0.507 | 0.477 | 0.517 | 0.44 | 0.411 | 1.21 | 1.18 | 0.954 | 1.08 | 0.795 | 0.76 | 0.709 | 0.718 | 0.681 | 0.585
NCI-H441 | 0.552 | 0.54 | 0.617 | 0.598 | 0.629 | 0.639 | 0.439 | 0.371 | 0.65 | 0.41 | 0.875 | 0.57 | 0.545 | 0.795 | 0.392 | 0.498 | 0.576 | 0.646 | 0.658 | 0.616
NCI-H460 | 0.366 | 0.536 | 0.48 | 0.36 | 0.482 | 0.108 | 0.224 | 0.227 | 0.182 | 0.0486 | 1.23 | 1.12 | 1.15 | 1.06 | 0.965 | 0.37 | 0.399 | 0.336 | 0.45 | 0.462
NCI-H520 | 0.139 | 0.228 | 0.218 | 0.191 | 0.225 | 0.572 | 0.688 | 0.788 | 0.674 | 0.251 | 1.04 |  | 1.03 | 0.987 | 0.316 | 0.299 | 0.343 | 0.379 | 0.35 | 0.324
NCI-H596 | 0.498 | 0.659 | 0.646 | 0.585 | 0.596 | 0.817 | 0.776 | 0.848 | 0.874 | 0.801 | 1.06 | 0.825 | 0.942 | 0.938 | 0.866 | 0.616 | 0.62 | 0.726 | 0.655 | 0.705
NCI-H647 | 0.151 | 0.207 | 0.175 | 0.178 | 0.198 | 0.461 | 0.411 | 0.543 | 0.538 | 0.443 | 1.2 | 1.01 | 1.11 | 1.09 | 0.844 | 0.626 | 0.633 | 0.547 | 0.502 | 0.454
NCI-H727 | 0.403 | 0.408 | 0.317 | 0.318 | 0.329 | 0.394 | 0.374 | 0.418 | 0.371 | 0.353 | 0.377 | 0.413 | 0.417 | 0.304 | 0.269 | 0.727 | 0.68 | 0.662 | 0.739 | 0.621
NCI-H838 | 0.278 | 0.286 | 0.341 | 0.29 | 0.27 | 0.579 | 0.504 | 0.544 | 0.591 | 0.423 | 1.23 | 1.1 | 1.3 | 1.21 | 0.985 | 0.773 | 0.769 | 0.776 | 0.764 | 0.74
NCI-H1355 | 0.633 | 0.723 | 0.694 | 0.679 | 0.775 | 0.423 | 0.399 | 0.411 | 0.46 | 0.317 | 1.01 | 0.735 | 0.939 | 0.825 | 0.73 | 0.754 | 0.665 | 0.734 | 0.825 | 0.684
NCI-H1395 | 0.349 | 0.373 | 0.417 | 0.405 | 0.444 | 1.13 | 1.05 | 1.01 | 1.19 | 0.981 | 1.26 | 1.13 | 1.46 | 1.75 | 0.991 | 0.511 | 0.487 | 0.442 | 0.523 | 0.494
NCI-H1437 | 0.401 | 0.45 | 0.254 | 0.405 | 0.222 | 0.54 | 0.528 | 0.498 | 0.468 | 0.263 | 1.13 | 1.07 | 1.22 | 1.16 | 0.931 | 0.588 | 0.667 | 0.643 | 0.615 | 0.612
NCI-H1650 | 0.322 | 0.275 | 0.322 | 0.292 | 0.305 | 0.637 | 0.477 | 0.494 | 0.588 | 0.372 | 1.22 | 0.967 | 1.28 | 1.1 | 0.85 | 0.753 | 0.827 | 0.756 | 0.792 | 0.572
NCI-H1651 | 0.313 | 0.461 | 0.431 | 0.394 | 0.386 | 0.863 | 0.786 | 0.806 | 0.845 | 0.8 | 1.13 | 0.938 | 1.22 | 1.04 | 0.887 | 0.176 | 0.179 | 0.17 | 0.165 | 0.19
